Data published in EP0598011B1, “ECDYSTEROID DEPENDENT REGULATION OF GENES IN MAMMALIAN CELLS” (GENENTECH, INC., priority 1991, dated 1993).

Experiments:
insect = settings: in vivo; cited from earlier work
GXG = biological target: T1, GXG (Rattus norvegicus, UniProt P06536); assay: Lex-operator reporter X4C-33CO with GXG; type: cell-based; settings: receptor GXG, SD in parentheses
T1 construct: expressed in transfected cells
T1 sequence (P06536 528-795): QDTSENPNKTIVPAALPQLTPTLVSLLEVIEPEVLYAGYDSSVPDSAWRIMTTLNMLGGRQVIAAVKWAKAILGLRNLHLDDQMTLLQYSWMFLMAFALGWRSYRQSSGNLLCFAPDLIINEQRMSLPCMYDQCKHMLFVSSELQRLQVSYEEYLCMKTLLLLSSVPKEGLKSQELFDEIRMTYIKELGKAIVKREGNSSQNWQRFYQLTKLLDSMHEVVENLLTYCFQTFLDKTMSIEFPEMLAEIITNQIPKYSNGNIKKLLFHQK
Text: (§1) Such fusion constructs are expected to be useful in regulating the expression of exogenous genes introduced into transgenic mammals or mammalian cells. I next determined if the DHR23α ligand-binding domain could be used to regulate the activity of a DNA-binding domain not normally expressed in mammalian cells. I constructed the chimeric gene GLxEc by replacing the sequences coding for the GR DNA-binding domain in the GGEc fusion with those encoding the DNA-binding domain of the Escherichia coli LexA repressor (J. W. Little and S. A. Hill, Proc. Natl. Acad. Sci. U.S.A. 82, 2301 [1985]) (Fig. 4). A reporter gene, X4C-33CO was constructed that contains 4 copies of a 26-bp lex operator (R. Brent and M. Ptashne, Nature 312, 612 [1984]) at position -33 of the CMV promoter. GLxEc had no effect on the expression of a OC-33CO, a reporter gene lacking the lex operator (Fig. 6B).
(§2) Illustrated in Table 2 is the transcriptional activation by receptor-LexA fusion proteins. Effector plasmids encoding the indicated receptor proteins were transfected with a reporter gene either containing (X4C-33CO) or lacking (OC-33CO) lex-operators. […] The cells were incubated either with (+) or without (-) muristerone A. The fold induction was determined as described previously; the standard deviations are shown in parenthesis.

OC-33CO = assay: Reporter OC-33CO lacking lex-operators, control effector plasmid without receptor cDNA; type: cell-based; settings: SD in parentheses
Text: as §1, §2

GXEc = biological target: T2, GXEc (Drosophila melanogaster, UniProt P34021); assay: Reporter OC-33CO lacking lex-operators with GXEc; type: cell-based; settings: receptor GXEc, SD in parentheses
T2 construct: expressed in transfected cells
T2 sequence (P34021 329-878): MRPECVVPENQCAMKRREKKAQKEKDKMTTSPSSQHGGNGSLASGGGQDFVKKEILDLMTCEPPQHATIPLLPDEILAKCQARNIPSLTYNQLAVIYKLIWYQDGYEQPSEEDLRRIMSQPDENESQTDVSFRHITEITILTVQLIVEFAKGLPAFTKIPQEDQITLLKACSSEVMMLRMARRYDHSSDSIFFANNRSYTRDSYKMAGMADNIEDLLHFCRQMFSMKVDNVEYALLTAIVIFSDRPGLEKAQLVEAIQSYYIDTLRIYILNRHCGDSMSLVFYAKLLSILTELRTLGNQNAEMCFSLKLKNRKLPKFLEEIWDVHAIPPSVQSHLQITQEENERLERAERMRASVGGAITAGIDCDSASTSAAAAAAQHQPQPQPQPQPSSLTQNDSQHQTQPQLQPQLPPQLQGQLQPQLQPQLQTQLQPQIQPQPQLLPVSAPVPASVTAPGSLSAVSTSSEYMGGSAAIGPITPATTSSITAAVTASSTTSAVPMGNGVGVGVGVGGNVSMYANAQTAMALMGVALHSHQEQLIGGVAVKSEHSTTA
Text: as §1, §2

GGG = biological target: T3, GGG (Rattus norvegicus, UniProt P06536); assay: Induction of GRE reporter G4M-77CO by GGG (glucocorticoid receptor) in 293 cells; settings: normalized to hGH, SD in parentheses, 2880 min
T3 sequence (P06536 1-795): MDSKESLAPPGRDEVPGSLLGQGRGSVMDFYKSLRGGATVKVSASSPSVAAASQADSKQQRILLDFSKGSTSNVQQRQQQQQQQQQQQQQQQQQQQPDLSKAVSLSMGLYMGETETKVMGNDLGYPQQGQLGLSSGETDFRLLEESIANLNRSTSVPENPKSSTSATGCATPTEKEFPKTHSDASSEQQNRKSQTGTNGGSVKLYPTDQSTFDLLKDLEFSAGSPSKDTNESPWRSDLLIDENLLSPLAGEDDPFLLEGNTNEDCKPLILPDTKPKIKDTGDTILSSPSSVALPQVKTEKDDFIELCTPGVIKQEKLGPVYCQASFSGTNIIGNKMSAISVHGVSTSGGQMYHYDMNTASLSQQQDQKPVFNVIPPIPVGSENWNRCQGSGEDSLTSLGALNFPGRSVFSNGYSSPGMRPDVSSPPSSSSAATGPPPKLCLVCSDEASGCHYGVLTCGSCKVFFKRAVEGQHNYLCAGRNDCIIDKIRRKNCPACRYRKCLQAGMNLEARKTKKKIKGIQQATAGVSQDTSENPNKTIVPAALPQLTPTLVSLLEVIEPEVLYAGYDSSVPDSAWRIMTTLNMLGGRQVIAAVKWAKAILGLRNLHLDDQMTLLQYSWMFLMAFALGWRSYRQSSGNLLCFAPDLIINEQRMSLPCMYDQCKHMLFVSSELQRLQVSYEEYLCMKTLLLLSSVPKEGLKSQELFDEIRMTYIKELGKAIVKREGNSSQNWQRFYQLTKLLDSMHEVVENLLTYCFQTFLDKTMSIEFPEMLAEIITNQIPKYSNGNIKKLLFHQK

VXEc = biological target: T4, VXEc (Drosophila melanogaster, UniProt P34021); assay: Lex-operator reporter X4C-33CO with VXEc; type: cell-based; settings: receptor VXEc, SD in parentheses
T4 construct: expressed in transfected cells
T4 sequence (P34021 329-878): T2 sequence (P34021 329-878)
Text: Finally, I determined if the activity of DHR23α fusion proteins could be further enhanced by inclusion of a potent viral transactivation domain. I constructed VGEc and VLxEc fusion genes by replacing a portion of the GR N-terminal activation domain in GGEc and GLxEc, respectively, with the herpes virus VP16 acidic activation domain (I. Sadowski et al., […]. 335, 563 [1988]; D. J. Cousens, R. Greaves, C. R. Coding, and P. O'Hare, EMBO J. 8, 2337 [1989]) (Fig. 4A). In transfected cells, these proteins accumulated to similar levels as derivatives lacking the VP16 activation domain (Fig. 4B). Both VGEc and VLxEc acted in an ecdysteroid-dependent fashion to induce activity of the appropriate reporter gene (Tables 1 and 2). However, the activity of VGEc and VLxEc was 5 and 10 fold greater than GGEc and GLxEc, respectively (M..A. Labow, S.B. Baim, T. Shenk, and A. J. Levine, Mol. and Cell. Biol. 10, 3343 [1990]). Thus, the DHR23α ligand-binding domain can be used to regulate the activities of viral, mammalian and bacterial DNA-binding or transactivation domains.
Illustrated in Table 2 is the transcriptional activation by receptor-LexA fusion proteins. […] The cells were incubated either with (+) or without (-) muristerone A. The fold induction was determined as described previously; the standard deviations are shown in parenthesis.

**Q.** Which insect moulting activity (insect) does the source give for `CC(C)CCC(O)[C@](C)(O)[C@H]1CC[C@@]2(O)C3=CC(=O)C4(O)CC(O)C(O)C[C@]4(C)[C@H]3C(O)C[C@]12C` (stereo partly shown) [muristerone A, 2,3,5,11,14,20,22-Heptahydroxy-7-cholesten-6-one] here?
**A.** high

**Q.** And the fold induction (GXG)?
**A.** 1.1 (0.2) fold

**Q.** And the fold induction (GXG; listed as muristerone)?
**A.** not induced

**Q.** What about the fold induction (OC-33CO) of the same compound?
**A.** 1.1 (0.4) fold

**Q.** And the fold induction (GXEc)?
**A.** 0.9 (0.3) fold

**Q.** What about the fold induction (GGG) of the same compound?
**A.** 1.0 (0.3) fold

**Q.** And the fold induction (VXEc)?
**A.** 563 (61) fold
